Test results: BigSolDB 2.1

CC(=O)N1CCN(c2ccc(OC[C@@H]3CO[C@@](Cn4ccnc4)(c4ccc(Cl)cc4Cl)O3)cc2)CC1 (racemic)
solubility (mole fraction)
Details | 293.2 K | 298.2 K | 303.2 K | 308.2 K | 313.2 K
in NMP | 0.0212 | 0.0242 | 0.0271 | 0.0301 | 0.0333
in ethanol | 0.00235 | 0.00299 | 0.00361 | 0.00438 | 0.00527
